# Experimental data from the NIST ThermoML archive (doi:10.1016/j.tca.2012.11.015).
# Numbers after ± are expanded uncertainties.
# Test: molar heat capacity at constant pressure
# Settings: 101.33 kPa, Crystal, Small sample (50 mg) DSC
compound,measurement,setting,value
[F-].[F-].[F-].[F-].[Li+].[Lu+3] [lithium lutetium fluoride],molar heat capacity at constant pressure,647.3 K,155.71 ± 3.1 J/K/mol
same,molar heat capacity at constant pressure,649.7 K,156.15 ± 3.1 J/K/mol
same,molar heat capacity at constant pressure,652.2 K,156.38 ± 3.1 J/K/mol
same,molar heat capacity at constant pressure,654.7 K,156.1 ± 3.1 J/K/mol
same,molar heat capacity at constant pressure,657.1 K,156.18 ± 3.1 J/K/mol
same,molar heat capacity at constant pressure,659.6 K,156.74 ± 3.1 J/K/mol
same,molar heat capacity at constant pressure,662.1 K,156.82 ± 3.1 J/K/mol
same,molar heat capacity at constant pressure,664.5 K,156.91 ± 3.1 J/K/mol
same,molar heat capacity at constant pressure,667 K,157.05 ± 3.1 J/K/mol
same,molar heat capacity at constant pressure,669.5 K,157.26 ± 3.1 J/K/mol
same,molar heat capacity at constant pressure,671.9 K,157.26 ± 3.1 J/K/mol
same,molar heat capacity at constant pressure,674.4 K,157.34 ± 3.1 J/K/mol
same,molar heat capacity at constant pressure,676.9 K,157.51 ± 3.1 J/K/mol
same,molar heat capacity at constant pressure,679.3 K,157.82 ± 3.2 J/K/mol
same,molar heat capacity at constant pressure,681.8 K,157.78 ± 3.2 J/K/mol
same,molar heat capacity at constant pressure,684.3 K,157.7 ± 3.1 J/K/mol
same,molar heat capacity at constant pressure,686.7 K,157.84 ± 3.2 J/K/mol
same,molar heat capacity at constant pressure,689.2 K,158.11 ± 3.2 J/K/mol
same,molar heat capacity at constant pressure,691.6 K,158.21 ± 3.2 J/K/mol
same,molar heat capacity at constant pressure,694.1 K,158.28 ± 3.2 J/K/mol
same,molar heat capacity at constant pressure,696.6 K,158.3 ± 3.2 J/K/mol
same,molar heat capacity at constant pressure,699 K,158.66 ± 3.2 J/K/mol
same,molar heat capacity at constant pressure,701.5 K,158.32 ± 3.2 J/K/mol
same,molar heat capacity at constant pressure,704 K,158.88 ± 3.2 J/K/mol
same,molar heat capacity at constant pressure,706.4 K,158.86 ± 3.2 J/K/mol
same,molar heat capacity at constant pressure,708.9 K,158.73 ± 3.2 J/K/mol
same,molar heat capacity at constant pressure,711.3 K,159.06 ± 3.2 J/K/mol
same,molar heat capacity at constant pressure,713.8 K,159.12 ± 3.2 J/K/mol
same,molar heat capacity at constant pressure,716.3 K,159.23 ± 3.2 J/K/mol
same,molar heat capacity at constant pressure,718.7 K,159.5 ± 3.2 J/K/mol
same,molar heat capacity at constant pressure,721.2 K,159.17 ± 3.2 J/K/mol
same,molar heat capacity at constant pressure,723.7 K,159.42 ± 3.2 J/K/mol
same,molar heat capacity at constant pressure,726.1 K,159.52 ± 3.2 J/K/mol
same,molar heat capacity at constant pressure,728.6 K,159.81 ± 3.2 J/K/mol
same,molar heat capacity at constant pressure,731 K,159.67 ± 3.2 J/K/mol
same,molar heat capacity at constant pressure,733.5 K,159.82 ± 3.2 J/K/mol
same,molar heat capacity at constant pressure,736 K,160.19 ± 3.2 J/K/mol
same,molar heat capacity at constant pressure,738.4 K,160.21 ± 3.2 J/K/mol
same,molar heat capacity at constant pressure,740.9 K,159.84 ± 3.2 J/K/mol
same,molar heat capacity at constant pressure,743.4 K,160.74 ± 3.2 J/K/mol
same,molar heat capacity at constant pressure,745.8 K,160.23 ± 3.2 J/K/mol
same,molar heat capacity at constant pressure,748.3 K,160.71 ± 3.2 J/K/mol
same,molar heat capacity at constant pressure,750.8 K,160.51 ± 3.2 J/K/mol
same,molar heat capacity at constant pressure,753.2 K,160.71 ± 3.2 J/K/mol
same,molar heat capacity at constant pressure,755.7 K,160.47 ± 3.2 J/K/mol
same,molar heat capacity at constant pressure,758.1 K,161.09 ± 3.2 J/K/mol
same,molar heat capacity at constant pressure,760.6 K,160.99 ± 3.2 J/K/mol
same,molar heat capacity at constant pressure,763.1 K,161.08 ± 3.2 J/K/mol
same,molar heat capacity at constant pressure,765.5 K,161.21 ± 3.2 J/K/mol
same,molar heat capacity at constant pressure,768 K,161.19 ± 3.2 J/K/mol
same,molar heat capacity at constant pressure,770.5 K,161.33 ± 3.2 J/K/mol
same,molar heat capacity at constant pressure,773 K,161.68 ± 3.2 J/K/mol
same,molar heat capacity at constant pressure,775.4 K,161.44 ± 3.2 J/K/mol
same,molar heat capacity at constant pressure,777.9 K,161.42 ± 3.2 J/K/mol
same,molar heat capacity at constant pressure,780.4 K,161.69 ± 3.2 J/K/mol
same,molar heat capacity at constant pressure,782.8 K,161.76 ± 3.2 J/K/mol
same,molar heat capacity at constant pressure,785.3 K,161.68 ± 3.2 J/K/mol
same,molar heat capacity at constant pressure,787.8 K,161.79 ± 3.2 J/K/mol
same,molar heat capacity at constant pressure,790.2 K,161.81 ± 3.2 J/K/mol
same,molar heat capacity at constant pressure,792.7 K,161.94 ± 3.2 J/K/mol
same,molar heat capacity at constant pressure,795.2 K,162.55 ± 3.2 J/K/mol
same,molar heat capacity at constant pressure,797.7 K,162.37 ± 3.2 J/K/mol
same,molar heat capacity at constant pressure,800.1 K,162.27 ± 3.2 J/K/mol
same,molar heat capacity at constant pressure,802.6 K,162.36 ± 3.2 J/K/mol
same,molar heat capacity at constant pressure,805.1 K,162.55 ± 3.2 J/K/mol
same,molar heat capacity at constant pressure,807.5 K,162.68 ± 3.2 J/K/mol
same,molar heat capacity at constant pressure,810 K,162.67 ± 3.2 J/K/mol
same,molar heat capacity at constant pressure,812.5 K,162.66 ± 3.2 J/K/mol
same,molar heat capacity at constant pressure,815 K,162.95 ± 3.3 J/K/mol
same,molar heat capacity at constant pressure,817.4 K,162.84 ± 3.3 J/K/mol
same,molar heat capacity at constant pressure,819.9 K,162.94 ± 3.3 J/K/mol
same,molar heat capacity at constant pressure,822.4 K,163.1 ± 3.3 J/K/mol
same,molar heat capacity at constant pressure,824.9 K,163.41 ± 3.3 J/K/mol
same,molar heat capacity at constant pressure,827.3 K,163.19 ± 3.3 J/K/mol
same,molar heat capacity at constant pressure,829.8 K,163.53 ± 3.3 J/K/mol
same,molar heat capacity at constant pressure,832.3 K,163.61 ± 3.3 J/K/mol
same,molar heat capacity at constant pressure,834.8 K,163.59 ± 3.3 J/K/mol
same,molar heat capacity at constant pressure,837.3 K,163.47 ± 3.3 J/K/mol
same,molar heat capacity at constant pressure,839.8 K,163.45 ± 3.3 J/K/mol
same,molar heat capacity at constant pressure,842.2 K,163.53 ± 3.3 J/K/mol
same,molar heat capacity at constant pressure,844.7 K,163.85 ± 3.3 J/K/mol
same,molar heat capacity at constant pressure,847.2 K,163.88 ± 3.3 J/K/mol
same,molar heat capacity at constant pressure,849.6 K,163.86 ± 3.3 J/K/mol
same,molar heat capacity at constant pressure,852.1 K,163.85 ± 3.3 J/K/mol
same,molar heat capacity at constant pressure,854.6 K,163.88 ± 3.3 J/K/mol
same,molar heat capacity at constant pressure,857.1 K,163.9 ± 3.3 J/K/mol
same,molar heat capacity at constant pressure,859.6 K,164.11 ± 3.3 J/K/mol
same,molar heat capacity at constant pressure,862.1 K,164.25 ± 3.3 J/K/mol
same,molar heat capacity at constant pressure,864.6 K,164.33 ± 3.3 J/K/mol
same,molar heat capacity at constant pressure,867 K,164.11 ± 3.3 J/K/mol
same,molar heat capacity at constant pressure,869.5 K,164.63 ± 3.3 J/K/mol
same,molar heat capacity at constant pressure,872 K,164.68 ± 3.3 J/K/mol
same,molar heat capacity at constant pressure,874.5 K,164.55 ± 3.3 J/K/mol
same,molar heat capacity at constant pressure,877 K,164.67 ± 3.3 J/K/mol
same,molar heat capacity at constant pressure,879.5 K,164.73 ± 3.3 J/K/mol
same,molar heat capacity at constant pressure,881.9 K,165.01 ± 3.3 J/K/mol
same,molar heat capacity at constant pressure,884.4 K,164.63 ± 3.3 J/K/mol
same,molar heat capacity at constant pressure,886.9 K,165.15 ± 3.3 J/K/mol
same,molar heat capacity at constant pressure,889.4 K,164.71 ± 3.3 J/K/mol
same,molar heat capacity at constant pressure,891.9 K,164.79 ± 3.3 J/K/mol
same,molar heat capacity at constant pressure,894.4 K,164.9 ± 3.3 J/K/mol
same,molar heat capacity at constant pressure,896.9 K,165 ± 3.3 J/K/mol
same,molar heat capacity at constant pressure,899.4 K,165.27 ± 3.3 J/K/mol
same,molar heat capacity at constant pressure,901.8 K,165.61 ± 3.3 J/K/mol
same,molar heat capacity at constant pressure,904.3 K,165.53 ± 3.3 J/K/mol
same,molar heat capacity at constant pressure,906.8 K,165.9 ± 3.3 J/K/mol
same,molar heat capacity at constant pressure,909.3 K,165.68 ± 3.3 J/K/mol
same,molar heat capacity at constant pressure,911.8 K,166.05 ± 3.3 J/K/mol
same,molar heat capacity at constant pressure,914.3 K,165.94 ± 3.3 J/K/mol
same,molar heat capacity at constant pressure,916.8 K,165.71 ± 3.3 J/K/mol
same,molar heat capacity at constant pressure,919.3 K,165.93 ± 3.3 J/K/mol
same,molar heat capacity at constant pressure,921.7 K,165.89 ± 3.3 J/K/mol
same,molar heat capacity at constant pressure,924.2 K,166.2 ± 3.3 J/K/mol
same,molar heat capacity at constant pressure,926.7 K,166.37 ± 3.3 J/K/mol
same,molar heat capacity at constant pressure,929.2 K,166.53 ± 3.3 J/K/mol
same,molar heat capacity at constant pressure,931.7 K,166.66 ± 3.3 J/K/mol
same,molar heat capacity at constant pressure,934.2 K,166.07 ± 3.3 J/K/mol
same,molar heat capacity at constant pressure,936.7 K,166.68 ± 3.3 J/K/mol
same,molar heat capacity at constant pressure,939.2 K,167.32 ± 3.4 J/K/mol
same,molar heat capacity at constant pressure,941.7 K,167.41 ± 3.4 J/K/mol
same,molar heat capacity at constant pressure,944.2 K,167.52 ± 3.4 J/K/mol
same,molar heat capacity at constant pressure,946.7 K,167.43 ± 3.4 J/K/mol
same,molar heat capacity at constant pressure,949.2 K,167.53 ± 3.4 J/K/mol
same,molar heat capacity at constant pressure,951.7 K,167.51 ± 3.4 J/K/mol
